Data reported in patent US20210052600A1, “THERAPEUTIC AGENTS FOR STRESS URINARY INCONTINENCE AND INCOTINENCE OF FECES” (Takeda Pharmaceutical Company Limited, priority 2017, published 2021).

Tests used:
[1] = Plasma concentrations in rats 30 minutes after oral administration (effective plasma concentration at LPP10); conditions: rat; measured concentration multiplied by ratio between dosage used and LPP10
Procedure: (§1) Ten female rats of SD strain were anesthetized with isoflurane. In order to secure the same conditions as those for drug-administered animals, their spinal cord was transected at the T8-T9 (the eighth thoracic cord—the ninth thoracic cord) level. Then, a cannula for blood collection was inserted into the femoral artery. […] These drugs were each dissolved in 0.5% MC. Thirty minutes after oral administration, up to 250 μL of blood was collected from the femoral artery or the tail vein and treated with heparin. The collected blood was immediately cooled on ice and centrifuged under conditions involving 3,000 rpm and 4° C. for 10 minutes to obtain plasma. The plasma samples were stored under conditions of −80° C. until drug quantification.
(§2) After thawing of the plasma samples, the internal standard compound was added thereto, and the mixture was then centrifuged under conditions of 5,250 rpm. The drug contained in 60 μL of the supernatant was quantified by LC-MS/MS.

[2] = Comparison of plasma concentrations for urethra-closing effect and anti-obesity effect (analysis of Examples 1-9 and literature); conditions: free form; extrapolated, 3.3-fold less than rat 670 ng/mL
[3] = rat, in vivo, 2.5 mg/kg
Procedure: as §1, §2

[4] = tested on: urethral resistance increasing effect of Compound A′; test: Influence of antagonists (SB 242084, methiothepin) on urethral resistance increasing effect of Compound A′ in rats; assay type: in vivo, rat; conditions: mean ± SEM; for LPP Increase: Post minus Pre; for LPP Pre: before administration
Procedure: Ninety female rats of SD strain were used. […] Isoflurane inhalation was added during the surgery, if necessary. In the experiment with intrathecal administration, the dura mater was exposed by laminectomy and then partially opened by incision, through which a catheter (PE-10) filled with saline was then implanted at the level of the L6-S1 site, followed by the closing of the incision. After opening of the abdomen, a catheter (PE-90) was inserted into the bladder. In order to secure reduced urethral resistance, unilateral nerve to iliococcygeus and pubococcygeus muscles was transected. For intraduodenal administration, another catheter (PE-50) was inserted into the duodenum in advance. The abdominal muscle and skin were each closed with sutures. Two (right and left) sites of abdominal skin near the diaphragm were cut to expose abdominal muscle. The bladder was emptied through the catheter, followed by the injection of 0.2 to 0.3 mL of Evans blue solution. Change in intravesical pressure was recorded using the bladder catheter via a pressure transducer, an electric signal amplifier, and an analog-to-digital converter. While change in intravesical pressure was recorded, the presence or absence of fluid leakage from the urethral orifice was observed under the electrical stimulation of the exposed abdominal muscle using an electrical stimulator and an isolator. […] The peak of the intravesical pressure during the stimulation of the abdominal muscle was measured, and the lowest pressure at which the fluid leakage was observed among the trials was defined as LPP for the electrical abdominal muscle stimulation method. In order to examine whether the urethral resistance increasing effect of Compound A′ is based on its agonistic potency on 5-HT2C receptors, SB 242084, methiothepin, or a vehicle was intravenously administered, and Compound A′ or a vehicle was intraduodenally administered 5 minutes later. SB 242084 was dissolved in a mixed solution of N,N-dimethylacetamide and polyethylene glycol 400 (1:1) and administered at 0.03 mg/0.5 mL/kg, 0.1 mg/0.5 mL/kg and 0.3 mg/0.5 mL/kg. Methiothepin was dissolved in saline and administered at 0.03 mg/0.5 mL/kg. 0.1 mg/0.5 mL/kg and 0.3 mg/0.5 mL/kg. Compound A′ was suspended in 0.5% MC and administered at 3 mg/mL/kg. LPP was measured again 30 minutes after Compound A′ administration. In order to examine where Compound A′ works in the body to increase urethral resistance, the blocking of the effect of Compound A′ was confirmed by blocking the functions of Compound A′ by giving methiothepin at a particular site in the body. Particularly, in the experiment with intrathecal administration, methiothepin or a vehicle was intrathecally administered, and Compound A′ or a vehicle was intraduodenally administered 5 minutes later. Methiothepin was dissolved in saline and 20 μL of the obtained solution was administered. Compound A′ was suspended in 0.5% MC and administered at 3 mg/mL/kg. LPP was measured again 30 minutes after Compound A′ administration.
Regarding change in LPP before and after drug administration, the differences between the mean values of the Compound A′-treated and vehicle-treated groups were analyzed by the Student's t test or the Welch's test. In order to analyze the influence of the antagonists on the effect of Compound A′, the differences between the mean values of the SB 242084- or methiothepin- and Compound A′-administered group and the vehicle- and Compound A′-administered group were analyzed by the one-tailed Williams' test.

[5] = tested on: anus-closing function increasing effect of Compound A′; test: Influence of SB 242084 on Compound A′-induced rat anus-closing function increasing effect (Anal LPP); assay type: in vivo; conditions: SB242084 0.3 mg/kg i.v. then Compound A′ 1 mg/kg i.v.; 5 minutes after Compound A′; n=9
Procedure: Eighteen female SD rats were used. After overnight fasting, rats were intraperitoneally administered with urethane for anesthesia, and isoflurane inhalation was added during surgery. The abdomen was incised to expose the rectum, and a small incision of the rectum was made. A polyethylene catheter (SP61, Natsume) was inserted into the rectum through the rectum incision, and the tip of the catheter was positioned around 5 mm from the anal orifice. The other end of the catheter was connected with a pressure transducer and an infusion pump via three-way stopcocks, and the change in pressure in the rectum was measured using the pressure transducer, an electric signal amplifier, and an analog-to-digital converter. For administrating drugs, a polyethylene catheter (SP45, Natsume) was inserted into the femoral vein after exposing the vein by small incision.
After recovery period from surgery, while saline was infused at a speed of 0.1 mL/sec into the rectum using an infusion pump, change in the measured pressure—was observed. […] The peak value of the pressure recorded in the rectum during the course of the procedures was defined as “an Anal LPP” in this Example. […] The Anal LPP was again measured in the same way 5 minutes after the administration with Compound A′. The difference in Anal LPP from the Pre value (increased amount of Anal LPP) was calculated. […]

[6] = SB 242084 0.03 mg/kg i.v. + Compound A′ 3 mg/kg i.d.
[7] = SB 242084 0.1 mg/kg i.v. + Compound A′ 3 mg/kg i.d.
[8] = SB 242084 0.3 mg/kg i.v. + Compound A′ 0 mg/kg i.d.
[9] = SB 242084 0.3 mg/kg i.v. + Compound A′ 3 mg/kg i.d.

Row | SMILES | plasma concentration at LPP10 [1] [ng/mL] | average plasma concentration in a day (steady state) giving a body weight lowering effect greater than placebo by 3.8% in humans [2] [ng/mL] | plasma concentration 30 minutes after oral administration [3] [ng/mL] | LPP Post ([4]; SB 242084 0.03 mg/kg i.v. + Compound A′ 3 mg/kg i.d., 30 minutes after Compound A′) [cmH2O] | LPP Increase [4, 6] [cmH2O] | LPP Pre [4, 6] [cmH2O] | LPP Post ([4]; SB 242084 0.1 mg/kg i.v. + Compound A′ 3 mg/kg i.d., 30 minutes after Compound A′) [cmH2O] | LPP Increase [4, 7] [cmH2O] | LPP Pre [4, 7] [cmH2O] | LPP Post ([4]; SB 242084 0.3 mg/kg i.v. + Compound A′ 0 mg/kg i.d., 30 minutes after i.d. administration) [cmH2O] | LPP Increase [4, 8] [cmH2O] | LPP Pre [4, 8] [cmH2O] | LPP Post ([4]; SB 242084 0.3 mg/kg i.v. + Compound A′ 3 mg/kg i.d., 30 minutes after Compound A′) [cmH2O] | LPP Increase [4, 9] [cmH2O] | LPP Pre [4, 9] [cmH2O] | Anal LPP Increase [5] [cmH2O]
1 | CC(C)N(C)c1cnc2c(n1)OCCNC2.Cl [Compound A, N-methyl-N-(1-methylethyl)-6,7,8,9-tetrahydropyrazino[2,3-f][1,4]oxazeine-3-amine] | 61 | 203 | 94.8 ± 24.1 | – | – | – | – | – | – | – | – | – | – | – | – | –
2 | Cc1cc2c(cc1Cl)N(C(=O)Nc1ccc(Oc3cccnc3C)nc1)CC2 [SB 242084] | – | – | – | 73.9 ± 8.7 | 29.9 ± 8.4 | 44.0 ± 7.4 | 57.6 ± 12.2 | 12.6 ± 6.3 | 45.0 ± 6.7 | 49.3 ± 8.7 | 3.4 ± 4.6 | 45.9 ± 5.4 | 48.0 ± 6.9 | 3.8 ± 4.4 | 44.3 ± 7.0 | -2.6±4.1
